Columns and labels:
[1] = Extent of reduction of diaminophenothiazines by DTT or ascorbic acid; assay type: physicochemical; settings: approx. 500:1 DTT excess, at 120 minutes
[2] = target: T1, full-length human tau (T40) / 12 kD PHF-core tau fragment (Homo sapiens, UniProt P10636); settings: for inhibition of 12 kD:T40 ratio (in words): IPTG 0-50 μM, thionine and tolonium chloride with 200 μM DTT/ascorbate, chlorpromazine and tacrine without reducing agents
[3] = target: T1, full-length human tau (T40) / 12 kD PHF-core tau fragment; assay: cell-based
[4] = in vivo; cited from earlier work

T1 sequence (P10636 1-441 isoform P10636-8): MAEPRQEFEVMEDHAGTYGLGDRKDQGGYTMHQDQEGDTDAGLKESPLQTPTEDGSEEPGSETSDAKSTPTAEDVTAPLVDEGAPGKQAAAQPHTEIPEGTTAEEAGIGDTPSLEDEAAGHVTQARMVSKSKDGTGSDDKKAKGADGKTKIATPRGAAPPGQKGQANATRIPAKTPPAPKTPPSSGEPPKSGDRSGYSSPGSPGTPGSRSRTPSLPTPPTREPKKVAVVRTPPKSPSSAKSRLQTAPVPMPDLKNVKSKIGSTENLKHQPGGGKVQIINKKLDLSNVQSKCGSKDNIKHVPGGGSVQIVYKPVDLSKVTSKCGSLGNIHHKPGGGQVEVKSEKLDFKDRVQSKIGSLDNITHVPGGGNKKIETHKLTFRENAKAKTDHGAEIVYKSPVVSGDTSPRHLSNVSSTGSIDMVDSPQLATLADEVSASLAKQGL

Compound | extent of reduction [1] | inhibition of 12 kD:T40 ratio (in words) [2] | Ki [3] | further results
Cc1cc(N(C)C)cc2[s+]c3cc(N(C)C)cc(C)c3nc12 [DMMB, 1,9-Dimethylmethylene Blue] | relatively little reduced |  |  | effect on tau degradation products within the cell ([2]; 1 μM DMMB, with and without IPTG induction): effectively abolished all degradation products; IC50 ([2]; read-out: cellular B50 value, base-line expression of the 12/14 kD species, concentration reducing 12 kD production to 50%): ~100 nM
CN(C)CCCN1c2ccccc2Sc2ccc(Cl)cc21 [chlorpromazine] |  | non-inhibitory | 2120 nM | 
Cc1cc2nc3ccc(N(C)C)cc3[s+]c2cc1N [tolonium chloride] |  |  |  | half live in blood [4]: approximately 100 minutes

Now from value to compound, other results behind:

extent of reduction [1] | inhibition of 12 kD:T40 ratio (in words) [2] | Ki [3] | Compound | further results
 | non-inhibitory | 802 nM | Nc1c2c(nc3ccccc13)CCCC2 [tacrine] | 
completely reduced | essentially identical inhibition |  | thionine | toxicity to cells of the assay [2]: toxic; conversion of induced T40 into the 12 kD fragment ([2]; 2 μM thionine (reduced), increasing IPTG): not converted into the 12 kD fragment

Source: patent US7335505B2, “Materials and methods relating to protein aggregation in neurodegenerative disease” (Wista Laboratories Ltd., priority 2001, dated 2008)
